Our source for the IC50 values is US9255100B2 (BAYER INTELLECTUAL PROPERTY GMBH, priority 2010, dated 2016).

The test has as its target T1, N-terminally GST-tagged human full length recombinant Mps-1 kinase (Homo sapiens, UniProt P33981).
T1 construct: N-terminally GST-tagged human full length recombinant Mps-1 kinase; purchased Invitrogen, Karslruhe, Germany PV4071
T1 sequence (P33981 1-857): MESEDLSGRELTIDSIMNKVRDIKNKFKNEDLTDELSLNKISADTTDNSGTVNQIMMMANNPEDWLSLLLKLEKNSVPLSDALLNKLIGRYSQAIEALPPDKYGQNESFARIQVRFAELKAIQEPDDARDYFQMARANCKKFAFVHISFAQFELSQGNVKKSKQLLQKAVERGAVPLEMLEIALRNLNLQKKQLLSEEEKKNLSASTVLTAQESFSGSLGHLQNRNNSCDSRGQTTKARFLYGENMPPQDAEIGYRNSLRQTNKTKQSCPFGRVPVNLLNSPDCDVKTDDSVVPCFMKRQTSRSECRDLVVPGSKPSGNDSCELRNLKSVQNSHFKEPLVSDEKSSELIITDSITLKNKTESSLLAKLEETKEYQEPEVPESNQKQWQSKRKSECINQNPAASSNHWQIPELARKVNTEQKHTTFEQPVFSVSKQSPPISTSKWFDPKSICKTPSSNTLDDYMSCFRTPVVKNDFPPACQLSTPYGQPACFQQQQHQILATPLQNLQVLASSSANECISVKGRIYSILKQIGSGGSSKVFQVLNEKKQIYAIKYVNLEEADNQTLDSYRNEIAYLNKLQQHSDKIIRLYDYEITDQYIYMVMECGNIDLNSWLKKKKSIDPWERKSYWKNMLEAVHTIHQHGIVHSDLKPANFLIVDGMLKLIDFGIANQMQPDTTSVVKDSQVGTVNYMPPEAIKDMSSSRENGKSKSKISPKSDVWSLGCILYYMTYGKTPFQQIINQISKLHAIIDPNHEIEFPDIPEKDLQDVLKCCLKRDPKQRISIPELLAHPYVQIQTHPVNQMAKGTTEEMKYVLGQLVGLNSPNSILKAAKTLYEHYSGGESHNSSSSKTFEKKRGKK
The experiment in a line: Mps-1 kinase assay (TR-FRET). Format: biochemical. Particulars: Mps1 IC50 [nM], 10 μM ATP, 1 μM peptide substrate, 60 min at 22° C. An outline of the steps:
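Read-out: TR-FRET from Europium-labelled anti-phospho(Ser/Thr) antibody to SA-XLent after 1 h detection incubation at 22° C. Inhibition of kinase activity measured.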
For orientation: IC50 means the concentration that inhibits the measured activity by half. As for `Cc1cc(-c2cnc3c(NCCC(F)(F)F)cc(Oc4cccc(F)c4)nn23)ccc1C(=O)O` [Example 550, 4-{6-(3-fluorophenoxy)-8-[(3,3,3-trifluoropropyl)amino]imidazo[1,2-b]pyridazin-3-yl}-2-methylbenzoic acid], the half-maximal inhibitory concentration (IC50) was 0.5 nM. In the case of `CNC(=O)c1ccc(-c2cnc3c(NCCC(F)(F)F)cc(Oc4cccc(F)c4)nn23)cc1C` [Example 551, 4-{6-(3-fluorophenoxy)-8-[(3,3,3-trifluoropropyl)amino]imidazo[1,2-b]pyridazin-3-yl}-N,2-dimethylbenzamide], the 50% inhibitory concentration (IC50) came out at 0.2 nM. `CCNC(=O)c1ccc(-c2cnc3c(NCCC(F)(F)F)cc(Oc4cccc(F)c4)nn23)cc1C` [Example 552, N-ethyl-4-{6-(3-fluorophenoxy)-8-[(3,3,3-trifluoropropyl)amino]imidazo[1,2-b]pyridazin-3-yl}-2-methylbenzamide]: the concentration for half-maximal inhibition (IC50) stood at 0.2 nM. The figure for `Cc1cc(-c2cnc3c(NCCC(F)(F)F)cc(Oc4cccc(F)c4)nn23)ccc1C(=O)NC(C)C` [Example 553, 4-{6-(3-fluorophenoxy)-8-[(3,3,3-trifluoropropyl)amino]imidazo[1,2-b]pyridazin-3-yl}-N-isopropyl-2-methylbenzamide] is 0.7 nM.

`Cc1cc(-c2cnc3c(NCCC(F)(F)F)cc(Oc4cccc(F)c4)nn23)ccc1C(=O)NCCC(F)(F)F` [Example 554, 4-{6-(3-fluorophenoxy)-8-[(3,3,3-trifluoropropyl)amino]imidazo[1,2-b]pyridazin-3-yl}-2-methyl-N-(3,3,3-trifluoropropyl)benzamide]: the 50% inhibitory concentration (IC50) was 1.6 nM. The figure for `Cc1cc(-c2cnc3c(NCCC(F)(F)F)cc(Oc4cccc(F)c4)nn23)ccc1C(=O)NCC(F)(F)C(F)(F)F` [Example 555, 4-{6-(3-fluorophenoxy)-8-[(3,3,3-trifluoropropyl)amino]imidazo[1,2-b]pyridazin-3-yl}-2-methyl-N-(2,2,3,3,3-pentafluoropropyl)benzamide] is 9.4 nM. The figure for `Cc1cc(-c2cnc3c(NCCC(F)(F)F)cc(Oc4cccc(F)c4)nn23)ccc1C(=O)NCC(F)F` [Example 556, N-(2,2-difluoroethyl)-4-{6-(3-fluorophenoxy)-8-[(3,3,3-trifluoropropyl)amino]imidazo[1,2-b]pyridazin-3-yl}-2-methylbenzamide] is 0.3 nM. As to `Cc1cc(-c2cnc3c(NCCC(F)(F)F)cc(Oc4cccc(F)c4)nn23)ccc1C(=O)NCC(C)C` [Example 557, 4-{6-(3-fluorophenoxy)-8-[(3,3,3-trifluoropropyl)amino]imidazo[1,2-b]pyridazin-3-yl}-N-isobutyl-2-methylbenzamide], the half-inhibitory concentration (IC50) came to 2.2 nM. The figure for `CNC(=O)c1ccc(-c2cnc3c(NCCC(F)(F)F)cc(Oc4ccc(Cl)cc4)nn23)cc1C` [Example 558, 4-{6-(4-chlorophenoxy)-8-[(3,3,3-trifluoropropyl)amino]imidazo[1,2-b]pyridazin-3-yl}-N, 2-dimethylbenzamide] is 0.3 nM; for `CCNC(=O)c1ccc(-c2cnc3c(NCCC(F)(F)F)cc(Oc4ccc(Cl)cc4)nn23)cc1C` [Example 559, 4-{6-(4-chlorophenoxy)-8-[(3,3,3-trifluoropropyl)amino]imidazo[1,2-b]pyridazin-3-yl}-N-ethyl-2-methylbenzamide] it is 0.6 nM; for `CNC(=O)c1ccc(-c2cnc3c(NCCC(F)(F)F)cc(Oc4ccc(O)cc4F)nn23)cc1C` [Example 560, 4-{6-(2-fluoro-4-hydroxyphenoxy)-8-[(3,3,3-trifluoropropyl)amino]imidazo[1,2-b]pyridazin-3-yl}-N,2-dimethylbenzamide] it is 0.1 nM. Turning to `CCNC(=O)c1ccc(-c2cnc3c(NCCC(F)(F)F)cc(Oc4ccc(O)cc4F)nn23)cc1C` [Example 561, N-ethyl-4-{6-(2-fluoro-4-hydroxyphenoxy)-8-[(3,3,3-trifluoropropyl)amino]imidazo[1,2-b]pyridazin-3-yl}-2-methylbenzamide], the IC50 stood at 0.6 nM.

Turning to `CNC(=O)c1ccc(-c2cnc3c(NCCN4CCOCC4)cc(Oc4ccc(F)c(F)c4)nn23)cc1C` [Example 562, 4-[6-(3,4-difluorophenoxy)-8-{[2-(morpholin-4-yl)ethyl]amino}imidazo[1,2-b]pyridazin-3-yl]-N,2-dimethylbenzamide], the IC50 is 2.7 nM.

Consider `CNC(=O)c1ccc(-c2cnc3c(NCCN4CCOCC4)cc(Oc4ccccc4C)nn23)cc1C` [Example 563, N,2-dimethyl-4-[6-(2-methylphenoxy)-8-{[2-(morpholin-4-yl)ethyl]amino}imidazo[1,2-b]pyridazin-3-yl]benzamide], for which the IC50 came to 4.3 nM. The figure for `CNC(=O)c1ccc(-c2cnc3c(NCCN4CCOCC4)cc(Oc4ccc(OC)cc4F)nn23)cc1C` [Example 565, 4-[6-(2-fluoro-4-methoxyphenoxy)-8-{[2-(morpholin-4-yl)ethyl]amino}imidazo[1,2-b]pyridazin-3-yl]-N,2-dimethylbenzamide] is 3.5 nM; for `CNC(=O)c1ccc(-c2cnc3c(NCCN4CCOCC4)cc(Oc4cc(F)ccc4C)nn23)cc1C` [Example 566, 4-[6-(5-fluoro-2-methylphenoxy)-8-{[2-(morpholin-4-yl)ethyl]amino}imidazo[1,2-b]pyridazin-3-yl]-N,2-dimethylbenzamide] it is 1.7 nM. The value for `CNC(=O)c1ccc(-c2cnc3c(NCC4CCOCC4)cc(Oc4ccc(F)c(F)c4)nn23)cc1C` [Example 567, 4-{6-(3,4-difluorophenoxy)-8-[(tetrahydro-2H-pyran-4-ylmethyl)amino]imidazo[1,2-b]pyridazin-3-yl}-N,2-dimethylbenzamide] was less than 1 nM; that for `CNC(=O)c1ccc(-c2cnc3c(NCC4CCOCC4)cc(Oc4ccccc4C)nn23)cc1C` [Example 568, N,2-dimethyl-4-{6-(2-methylphenoxy)-8-[(tetrahydro-2H-pyran-4-ylmethyl)amino]imidazo[1,2-b]pyridazin-3-yl}benzamide] was less than 1 nM.

Consider `CNC(=O)c1ccc(-c2cnc3c(NCC4CCOCC4)cc(Oc4cccc(F)c4)nn23)cc1C` [Example 569, 4-{6-(3-fluorophenoxy)-8-[(tetrahydro-2H-pyran-4-ylmethyl)amino]imidazo[1,2-b]pyridazin-3-yl}-N,2-dimethylbenzamide], for which the IC50 is less than 1 nM. On to `CNC(=O)c1ccc(-c2cnc3c(NCC4CCOCC4)cc(Oc4ccc(OC)cc4)nn23)cc1C` [Example 570, 4-{6-(4-methoxyphenoxy)-8-[(tetrahydro-2H-pyran-4-ylmethyl)amino]imidazo[1,2-b]pyridazin-3-yl}-N,2-dimethylbenzamide], for which the concentration for half-maximal inhibition (IC50) was less than 1 nM. In the case of `CNC(=O)c1ccc(-c2cnc3c(NCC4CCOCC4)cc(Oc4ccc(OC)cc4F)nn23)cc1C` [Example 571, 4-{6-(2-fluoro-4-methoxyphenoxy)-8-[(tetrahydro-2H-pyran-4-ylmethyl)amino]imidazo[1,2-b]pyridazin-3-yl}-N,2-dimethylbenzamide], the IC50 was less than 1 nM. Turning to `CNC(=O)c1ccc(-c2cnc3c(NCC4CCOCC4)cc(Oc4cc(F)ccc4C)nn23)cc1C` [Example 572, 4-{6-(5-fluoro-2-methylphenoxy)-8-[(tetrahydro-2H-pyran-4-ylmethyl)amino]imidazo[1,2-b]pyridazin-3-yl}-N,2-dimethylbenzamide], the IC50 is less than 1 nM.
